Laboratory results as given in ChEMBL document CHEMBL3400110, “Iminopyrimidinones: a novel pharmacophore for the development of orally active renin inhibitors” (Bioorg Med Chem Lett, 2015).
Calls of active or inactive are those of the source. The calls are words filed in the database; no cut-off is given here.

Tests used:
[1] = molecular target: T1, Nuclear receptor subfamily 1 group I member 2 (Homo sapiens, UniProt O75469); assay: Inhibition of PXR (unknown origin); format: ADME
T1 sequence (O75469 whole entry): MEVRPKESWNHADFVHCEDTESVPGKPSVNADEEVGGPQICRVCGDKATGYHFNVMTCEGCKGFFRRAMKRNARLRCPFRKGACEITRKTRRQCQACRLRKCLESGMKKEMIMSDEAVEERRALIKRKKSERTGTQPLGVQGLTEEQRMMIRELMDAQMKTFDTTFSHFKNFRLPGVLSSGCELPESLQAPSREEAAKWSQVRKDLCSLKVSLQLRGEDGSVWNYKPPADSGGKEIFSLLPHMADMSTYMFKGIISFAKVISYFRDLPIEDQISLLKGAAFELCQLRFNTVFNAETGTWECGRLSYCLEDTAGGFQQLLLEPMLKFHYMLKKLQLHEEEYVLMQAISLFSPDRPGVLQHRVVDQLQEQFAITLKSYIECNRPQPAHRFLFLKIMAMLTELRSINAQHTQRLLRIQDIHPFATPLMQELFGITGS

Beta-secretase 2 = molecular target: T2, Beta-secretase 2 (Homo sapiens, UniProt Q9Y5Z0); assay: Inhibition of BACE2 (unknown origin)
T2 sequence (Q9Y5Z0 whole entry): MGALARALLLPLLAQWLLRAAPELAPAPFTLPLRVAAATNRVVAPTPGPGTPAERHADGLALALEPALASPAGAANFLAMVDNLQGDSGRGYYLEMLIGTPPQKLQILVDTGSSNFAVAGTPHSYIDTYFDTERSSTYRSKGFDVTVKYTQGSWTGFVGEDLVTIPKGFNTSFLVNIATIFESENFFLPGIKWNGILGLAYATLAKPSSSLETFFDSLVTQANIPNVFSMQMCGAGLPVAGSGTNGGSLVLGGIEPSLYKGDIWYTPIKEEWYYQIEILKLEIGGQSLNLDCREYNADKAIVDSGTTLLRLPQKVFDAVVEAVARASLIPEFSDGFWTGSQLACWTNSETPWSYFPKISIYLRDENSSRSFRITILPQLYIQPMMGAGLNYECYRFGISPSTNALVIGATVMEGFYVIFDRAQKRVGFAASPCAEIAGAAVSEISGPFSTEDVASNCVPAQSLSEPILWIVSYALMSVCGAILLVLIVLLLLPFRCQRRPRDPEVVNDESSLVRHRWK

Rattus norvegicus [2] = assay: Antihypertensive activity in rat/human renin double transgenic rat model assessed as reduction in mean arterial pressure at 10 mg/kg, po after 20 hrs; format: functional, organism-based; set-up: dose 10 mg/kg; conditions: Artery
Homo sapiens [3] = species: Homo sapiens; assay: Clearance in human assessed per million cells; format: ADME, cell-based
[4] = AUC in cynomolgus monkey at 3 mg/kg, po; format: ADME, organism-based, Macaca fascicularis; set-up: dose 3 mg/kg, route oral; conditions: plasma
Renin = molecular target: T3, Renin (Homo sapiens, UniProt P00797); assay: Inhibition of renin (unknown origin)
T3 sequence (P00797 whole entry): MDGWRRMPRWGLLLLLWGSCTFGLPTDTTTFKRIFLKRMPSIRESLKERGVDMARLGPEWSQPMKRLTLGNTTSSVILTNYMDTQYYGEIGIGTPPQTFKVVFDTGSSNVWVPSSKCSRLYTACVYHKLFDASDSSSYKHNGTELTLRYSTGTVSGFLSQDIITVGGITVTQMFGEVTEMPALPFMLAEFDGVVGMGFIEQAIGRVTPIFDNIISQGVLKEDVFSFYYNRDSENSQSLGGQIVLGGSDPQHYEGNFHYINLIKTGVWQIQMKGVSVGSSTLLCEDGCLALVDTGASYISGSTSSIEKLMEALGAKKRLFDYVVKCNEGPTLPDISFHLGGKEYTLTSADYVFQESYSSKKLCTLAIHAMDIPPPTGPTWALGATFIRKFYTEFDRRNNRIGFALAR

Cathepsin E = molecular target: T4, Cathepsin E (Homo sapiens, UniProt P14091); assay: Inhibition of CathE (unknown origin)
T4 sequence (P14091 whole entry): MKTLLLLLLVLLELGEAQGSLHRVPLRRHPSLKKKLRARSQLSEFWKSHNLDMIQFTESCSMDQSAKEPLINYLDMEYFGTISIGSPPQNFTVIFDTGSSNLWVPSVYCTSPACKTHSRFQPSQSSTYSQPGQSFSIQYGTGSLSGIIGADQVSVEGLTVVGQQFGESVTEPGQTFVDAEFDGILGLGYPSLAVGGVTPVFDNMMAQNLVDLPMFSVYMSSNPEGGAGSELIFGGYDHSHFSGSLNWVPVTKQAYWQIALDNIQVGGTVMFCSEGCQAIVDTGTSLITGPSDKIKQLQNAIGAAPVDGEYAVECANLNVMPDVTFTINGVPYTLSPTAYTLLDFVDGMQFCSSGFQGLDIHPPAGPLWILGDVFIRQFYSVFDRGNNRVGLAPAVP

Rattus norvegicus [5] = assay: Antihypertensive activity in rat/human renin double transgenic rat model assessed as reduction in mean arterial pressure at 10 mg/kg, po after 17 hrs; format: functional, organism-based; set-up: dose 10 mg/kg; conditions: Artery
[6] = AUC (0 to 6 hrs) in rat at 10 mg/kg, po; format: ADME, organism-based; set-up: time < 6 hr, dose 10 mg/kg, route oral; conditions: plasma
Cathepsin D = Cathepsin D (Homo sapiens, UniProt P07339); assay: Inhibition of CathD (unknown origin)
[7] = Oral bioavailability in dog at 3 mg/kg; format: ADME, organism-based, Canis lupus familiaris; conditions: in vivo
[8] = Protein binding in rat plasma; format: ADME, cell-free; conditions: read-out: PPB (converted)
[9] = Protein binding in human plasma; format: ADME, cell-free; conditions: read-out: PPB (converted)
[10] = molecular target: D(1A) dopamine receptor (Homo sapiens) (UniProt P21728); assay: Inhibition of human D1 receptor at 10 uM
[11] = molecular target: Voltage-gated inwardly rectifying potassium channel KCNH2 (Homo sapiens, UniProt Q12809); assay: Inhibition of human ERG by voltage clamp method
Homo sapiens [12] = species: Homo sapiens; assay: Inhibition of Na+ channel site 2 (unknown origin) at 10 uM
[13] = Inhibition of CYP (unknown origin); format: ADME; conditions: human
[14] = Inhibition of pepsin (unknown origin); set-up: species or system Homo sapiens
[15] = AUC in dog at 3 mg/kg, po; format: ADME, organism-based, Canis lupus familiaris; set-up: dose 3 mg/kg, route oral; conditions: plasma
Beta-secretase 1 = Beta-secretase 1 (Homo sapiens, UniProt P56817); assay: Inhibition of BACE1 (unknown origin)
[16] = Fraction unbound in rat plasma; format: ADME, cell-free
Rattus norvegicus [17] = assay: Antihypertensive activity in rat/human renin double transgenic rat model assessed as maximum reduction in mean arterial pressure at 10 mg/kg, po; format: functional, Artery
[18] = Oral bioavailability in cynomolgus monkey at 3 mg/kg; format: ADME, organism-based, Macaca fascicularis; conditions: in vivo
[19] = molecular target: Sodium-dependent dopamine transporter (Homo sapiens) (UniProt Q01959); assay: Inhibition of human dopamine transporter at 10 uM
[20] = Permeability across human Caco2 cells; format: ADME, cell-based; conditions: Caco-2, read-out: permeability
hERG (KCNH2) = hERG (KCNH2) (Homo sapiens, UniProt Q12809); assay: Inhibition of human ERG at 10 uM
clinical = conditions: human, in vivo, po

Chain of Cathepsin D (P07339 65-162 limits assumed): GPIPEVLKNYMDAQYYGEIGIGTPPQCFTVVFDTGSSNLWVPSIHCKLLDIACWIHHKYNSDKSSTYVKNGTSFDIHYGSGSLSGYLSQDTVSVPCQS
Chain of Cathepsin D (P07339 169-412 limits assumed): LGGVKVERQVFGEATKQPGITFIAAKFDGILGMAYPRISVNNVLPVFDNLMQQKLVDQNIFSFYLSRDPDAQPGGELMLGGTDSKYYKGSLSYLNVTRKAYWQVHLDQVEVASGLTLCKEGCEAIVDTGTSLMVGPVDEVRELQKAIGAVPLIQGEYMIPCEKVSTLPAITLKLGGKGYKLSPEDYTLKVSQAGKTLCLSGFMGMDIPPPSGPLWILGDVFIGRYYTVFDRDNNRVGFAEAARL
Chain of hERG (KCNH2) (Q12809 whole entry): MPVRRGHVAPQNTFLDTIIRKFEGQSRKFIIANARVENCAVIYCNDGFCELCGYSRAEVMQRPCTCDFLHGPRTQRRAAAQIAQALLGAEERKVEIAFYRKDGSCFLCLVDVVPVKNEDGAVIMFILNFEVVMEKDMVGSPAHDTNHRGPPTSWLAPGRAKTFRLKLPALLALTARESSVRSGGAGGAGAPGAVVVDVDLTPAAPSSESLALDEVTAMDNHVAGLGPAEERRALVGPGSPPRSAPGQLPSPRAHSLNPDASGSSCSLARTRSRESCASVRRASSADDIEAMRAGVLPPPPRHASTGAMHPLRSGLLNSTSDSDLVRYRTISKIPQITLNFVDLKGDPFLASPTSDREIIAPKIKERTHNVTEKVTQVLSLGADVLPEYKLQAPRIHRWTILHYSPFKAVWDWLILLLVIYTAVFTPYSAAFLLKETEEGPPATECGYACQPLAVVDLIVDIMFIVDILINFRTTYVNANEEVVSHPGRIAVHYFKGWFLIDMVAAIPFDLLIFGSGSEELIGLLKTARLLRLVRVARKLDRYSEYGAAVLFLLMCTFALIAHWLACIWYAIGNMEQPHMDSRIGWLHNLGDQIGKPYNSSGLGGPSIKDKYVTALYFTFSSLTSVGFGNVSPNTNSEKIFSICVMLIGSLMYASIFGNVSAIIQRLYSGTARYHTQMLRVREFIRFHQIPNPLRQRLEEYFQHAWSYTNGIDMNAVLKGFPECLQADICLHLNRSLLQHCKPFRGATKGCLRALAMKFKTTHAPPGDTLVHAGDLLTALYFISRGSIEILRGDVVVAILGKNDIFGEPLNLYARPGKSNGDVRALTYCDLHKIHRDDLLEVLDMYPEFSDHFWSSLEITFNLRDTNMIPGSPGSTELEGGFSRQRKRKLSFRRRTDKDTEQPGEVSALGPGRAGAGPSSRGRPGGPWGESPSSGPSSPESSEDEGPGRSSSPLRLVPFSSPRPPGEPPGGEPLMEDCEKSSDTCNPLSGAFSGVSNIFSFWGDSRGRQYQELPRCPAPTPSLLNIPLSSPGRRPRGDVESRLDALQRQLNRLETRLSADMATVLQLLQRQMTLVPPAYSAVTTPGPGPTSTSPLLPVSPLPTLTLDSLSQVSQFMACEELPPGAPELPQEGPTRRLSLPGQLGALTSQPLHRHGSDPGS
Chain of Beta-secretase 1 (P56817 whole entry): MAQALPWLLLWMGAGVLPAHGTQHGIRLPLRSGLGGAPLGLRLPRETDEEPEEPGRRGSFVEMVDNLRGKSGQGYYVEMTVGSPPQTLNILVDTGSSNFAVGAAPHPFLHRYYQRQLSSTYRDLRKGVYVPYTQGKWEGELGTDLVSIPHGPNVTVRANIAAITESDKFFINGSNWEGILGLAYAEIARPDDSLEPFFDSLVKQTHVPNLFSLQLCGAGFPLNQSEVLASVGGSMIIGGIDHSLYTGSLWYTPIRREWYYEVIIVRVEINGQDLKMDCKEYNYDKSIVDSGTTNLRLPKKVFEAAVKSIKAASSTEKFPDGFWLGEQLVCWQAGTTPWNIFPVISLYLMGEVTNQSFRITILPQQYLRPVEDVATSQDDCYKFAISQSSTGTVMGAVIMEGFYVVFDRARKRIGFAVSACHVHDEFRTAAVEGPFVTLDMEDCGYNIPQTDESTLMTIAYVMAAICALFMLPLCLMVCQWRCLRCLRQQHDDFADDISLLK
Chain of D(1A) dopamine receptor (Homo sapiens) (P21728 whole entry): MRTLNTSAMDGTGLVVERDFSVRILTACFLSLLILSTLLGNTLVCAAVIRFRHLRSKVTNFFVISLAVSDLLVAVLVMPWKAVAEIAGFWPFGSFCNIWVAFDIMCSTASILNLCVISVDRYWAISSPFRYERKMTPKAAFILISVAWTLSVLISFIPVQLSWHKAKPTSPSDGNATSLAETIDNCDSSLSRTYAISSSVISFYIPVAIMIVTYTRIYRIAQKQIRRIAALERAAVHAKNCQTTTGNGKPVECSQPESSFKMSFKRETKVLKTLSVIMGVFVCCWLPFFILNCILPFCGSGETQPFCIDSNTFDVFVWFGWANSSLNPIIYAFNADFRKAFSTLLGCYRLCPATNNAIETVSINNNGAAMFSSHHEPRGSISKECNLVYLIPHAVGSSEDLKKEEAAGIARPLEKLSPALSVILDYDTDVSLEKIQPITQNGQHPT
Chain of Sodium-dependent dopamine transporter (Homo sapiens) (Q01959 whole entry): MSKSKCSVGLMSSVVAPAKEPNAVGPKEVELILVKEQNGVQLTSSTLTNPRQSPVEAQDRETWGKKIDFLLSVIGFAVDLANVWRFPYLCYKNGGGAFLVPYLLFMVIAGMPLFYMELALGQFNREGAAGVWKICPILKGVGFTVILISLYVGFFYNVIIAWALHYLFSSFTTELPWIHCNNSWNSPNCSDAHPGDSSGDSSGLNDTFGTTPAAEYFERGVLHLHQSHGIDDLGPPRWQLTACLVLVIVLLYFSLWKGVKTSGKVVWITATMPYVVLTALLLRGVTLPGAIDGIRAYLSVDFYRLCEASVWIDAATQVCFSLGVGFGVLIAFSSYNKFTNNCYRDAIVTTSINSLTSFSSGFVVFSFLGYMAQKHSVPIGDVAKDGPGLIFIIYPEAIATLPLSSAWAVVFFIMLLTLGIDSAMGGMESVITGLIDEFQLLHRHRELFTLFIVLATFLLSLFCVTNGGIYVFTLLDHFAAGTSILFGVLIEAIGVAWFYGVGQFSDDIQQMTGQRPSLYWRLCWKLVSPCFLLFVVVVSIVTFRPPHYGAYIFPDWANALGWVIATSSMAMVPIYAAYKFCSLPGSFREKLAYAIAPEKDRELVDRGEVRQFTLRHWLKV
Chain of Voltage-gated inwardly rectifying potassium channel KCNH2 (Q12809 whole entry): as the sequence (Q12809 whole entry) above

## CC(C)[C@]1(C)CC(=O)N(Cc2cc(F)cc(C(=O)N[C@@H](C)c3ccccc3)c2)C(=N)N1
[1]
  INH: > 30 µM
Beta-secretase 2
  Ki: 480 nM
Rattus norvegicus [2]
  Activity: Active
Homo sapiens [3]
  CL: 4 µL/min
[4]
  AUC: 1 µM·h
Renin
  Ki: 0.6 nM
Cathepsin E
  Ki: 1100 nM
Rattus norvegicus [5]
  Activity: Active
[6]
  AUC(0-t) at 6 h: 6.52 µM·h
Cathepsin D
  Ki: 180 nM
[7]
  bioavailability: 38%
[8]
  fraction unbound: 0.059
[9]
  fraction unbound: 0.058
[10]
  inhibition: 64%
[11]
  IC50: 9000 nM
Homo sapiens [12]
  inhibition: 79%
[13]
  INH: > 30 µM
[14]
  Ki: > 10000 nM
[15]
  AUC: 3 µM·h
Beta-secretase 1
  Ki: > 10000 nM
[16]
  fraction unbound: 0.059
Rattus norvegicus [17]
  Activity: 66 mmHg
[18]
  bioavailability: 9%
[19]
  inhibition: 51%

## CC(C)[C@]1(C)CC(=O)N(Cc2cccc(N3C[C@@H](c4ccccc4)CC3=O)c2)C(=N)N1
Renin
  Ki: 44 nM
[6]
  AUC(0-t) at 6 h: 2.04 µM·h
[20]
  Papp: 4.2 ×10⁻⁶ cm/s

## CC(C)[C@]1(C)CC(=O)N(Cc2ccnc(N3CC[C@H](c4ccccc4)C3)c2)C(=N)N1
Renin
  Ki: 15 nM
[6]
  AUC(0-t) at 6 h: 0.595 µM·h
hERG (KCNH2)
  inhibition at 10 µM: 72%

## CC(C)[C@]1(C)CC(=O)N(Cc2cccc(C(=O)N[C@@H](C)c3ccccc3)c2)C(=N)N1
Renin
  Ki: 2.2 nM
[6]
  AUC(0-t) at 6 h: 0.405 µM·h

## CC(C)[C@]1(C)CC(=O)N(Cc2cccc(N3CC(c4cccc(Cl)c4)CC3=O)c2)C(=N)N1 (stereo partly drawn)
Renin
  Ki: 2 nM
hERG (KCNH2)
  inhibition at 10 µM: 92%

## CC(C)[C@]1(C)CC(=O)N(Cc2ccnc(N3C[C@@H](c4ccccc4)CC3=O)c2)C(=N)N1
Renin
  Ki: 6 nM
[6]
  AUC(0-t) at 6 h: 2.44 µM·h
hERG (KCNH2)
  inhibition at 10 µM: 77%

## C[C@@]1(c2ccc3sccc3c2)CC(=O)N(Cc2cccc(C(=O)NCc3ccccc3)c2)C(=N)N1
Renin
  Ki: 82 nM
[6]
  AUC(0-t) at 6 h: 0.049 µM·h
Cathepsin D
  Ki: 19500 nM
Beta-secretase 1
  Ki: 3820 nM

## CN[C@H](CNC(=O)N1CCC[C@@H]([C@@H](OCCNC(=O)OC)c2cccc(Cl)c2)C1)C[C@H]1CCCOC1 [VTP-27999]
Renin
  IC50: 0.5 nM

## CC(C)[C@]1(C)CC(=O)N(Cc2cc(F)cc(N3C[C@@H](c4ccccc4)CC3=O)c2)C(=N)N1
Homo sapiens [3]
  CL: 7.6 µL/min
Renin
  Ki: 19 nM
[6]
  AUC(0-t) at 6 h: 2.25 µM·h
[20]
  Papp: 6.7 ×10⁻⁶ cm/s
hERG (KCNH2)
  inhibition at 10 µM: 85%

## CC(C)[C@]1(C)CC(=O)N(Cc2cccc(N3C[C@H](c4ccccc4)CC3=O)c2)C(=N)N1
Renin
  Ki: 420 nM

## CC(C)[C@]1(C)CC(=O)N(Cc2cccc(C(=O)N[C@H](C)c3ccccc3)c2)C(=N)N1
Renin
  Ki: 86 nM
[6]
  AUC(0-t) at 6 h: 0.173 µM·h

## COCCCOc1cc(C[C@@H](C[C@H](N)[C@@H](O)C[C@H](C(=O)NCC(C)(C)C(N)=O)C(C)C)C(C)C)ccc1OC
clinical
  bioavailability: 2.5%
Rattus norvegicus [17]
  Activity: 43 mmHg

## CC(C)[C@]1(C)CC(=O)N(Cc2cccc(C(=O)NCc3ccccc3)c2)C(=N)N1
Homo sapiens [3]
  CL: 3.7 µL/min
Renin
  Ki: 56 nM
[6]
  AUC(0-t) at 6 h: 0.031 µM·h
Cathepsin D
  Ki: 2700 nM
[20]
  Papp: 0.09 ×10⁻⁶ cm/s
Beta-secretase 1
  Ki: > 10000 nM
